Assay results reported in paper PMC7984888, “Inhibitory Activity of Pyrroloisoxazolidine Derivatives against Chlamydia trachomatis” (BioMed Research International, 2021).

Columns and labels:
Format in all cases: cell-based
[1] = system: Chlamydia trachomatis serovar L2 (strain 434/Bu); assay: Infectious progeny inhibition assay, C. trachomatis L2; conditions: Chlamydia trachomatis, HeLa, generation of infectious progeny EBs in HeLa cells, MOI 0.2, 36 hpi, 1 to 32 μM; read-out: IC50 (μM) Mean (95% confidence interval) Ct L2
Procedure: (§1) Chlamydia trachomatis serovars D (strain UW-3/CX) and L2 (strain 434/Bu) were purchased from ATCC. HeLa cells purchased from ATCC were routinely cultured in DMEM supplemented with 10% heat-inactivated FBS (Sigma-Aldrich) and 10 μg/mL gentamicin at 37°C in a humidified atmosphere of 5% and were used for chlamydial propagation and cell culture experiments. EBs were purified by Renografin density gradient and stored in sucrose-phosphate-glutamate (SPG) buffer at -80°C [20]. A mouse polyclonal anti-MoPn (C. muridarum strain Nigg II) antibody, which was produced in our laboratory and cross-reacting with C. trachomatis D and L2, was used as a primary antibody for both stains detection.
(§2) Cell monolayers seeded onto coverslips in a 24-well plate were infected with C. trachomatis at a multiplicity of infection (MOI) of 0.2 inclusion-forming units (IFU) per cell. Unless noted, individual compound was added into culture medium at indicated concentrations simultaneously at the time of inoculation. 0.5% DMSO was used as negative control and 11.25 μM tetracycline (Sigma-Aldrich) as positive control. For C. trachomatis D, an additional centrifugation (900 × g at room temperature for 1 h) was applied to facilitate the infection. At 36 hours postinfection (hpi), infected cells were fixed by precooled methanol and then subjected to sequential staining processed with a primary antibody and a FITC-conjugated secondary antibody. Evans blue was used as cytoplasm counterstain. Images were shot by an Olympus IX51 fluorescence microscope.
(§3) Cells monolayers seeded in 48-well plate were infected and treated with chemicals as above. After incubation for 36 hours, infected cells were washed twice, scraped off, and lysed by sonication to release the infectious progeny EBs. Then the lysates were used to reinfect fresh cell monolayers grown in 96-well plate following 1 : 10 serial dilution. The inclusion counts were obtained by immunofluorescence staining as above to calculate the number of infectious progeny EBs in each sample. Percent inhibition was calculated based on EB counts in compound-treated samples relative to DMSO-treated negative control.
(§4) Data from the three independent experiments were presented as mean ± standard deviations (SD) and were subjected to pairwise Student's t-tests. p < 0.05 and p < 0.01 are considered statistically significant and statistically highly significant, respectively. The IC50 values, defined as the concentration of compound at which the generation of infectious progeny EBs was reduced by 50% relative to negative control, were calculated by nonlinear regression from percent inhibition data using the GraphPad Prism 5 software, and presented as mean (95% confidence interval).

[2] = system: Chlamydia trachomatis serovar D (strain UW-3/CX); assay: Infectious progeny inhibition assay, C. trachomatis D; conditions: Chlamydia trachomatis, HeLa, generation of infectious progeny EBs in HeLa cells, MOI 0.2, 36 hpi, 1 to 32 μM; read-out: IC50 (μM) Mean (95% confidence interval) Ct D
Procedure: as §1, §2, §3, §4

WST-1 cell viability = conditions: human, uninfected HeLa cells, WST-1, relative to DMSO control as 100%
Procedure: Uninfected HeLa cells were cultured with 32 μM (the highest concentration used in antichlamydial analysis) of individual compound or 0.5% DMSO for 48 h. After 10 μL of WST-1 reagent was added, cells were incubated for an additional 1 h, and absorbance at 450 nm was recorded. The viability of compound-treated cells was calculated by the absorbance relative to that of DMSO control setting as 100% [22].

Row | IC50 [1] [µM] | IC50 [2] [µM] | Compound | viability at 48 h, 32 µM (WST-1 cell viability) [%]
1 | 8.67 | 20.9 | Brc1ccc(C2C3CC(c4ccccc4)N(c4ccccc4)C3ON2c2ccccc2)cc1 (stereo not drawn) [Compound 3] | 99.9
2 | 11.2 | > 32 | COc1ccc(N2C(c3ccccc3)CC3C(c4ccccc4Br)N(c4ccccc4)OC32)cc1 (stereo not drawn) [Compound 4] | 97.5
3 | 15.5 | > 32 | COc1ccc(N2C(c3ccccc3)CC3C(c4cccc(Br)c4)N(c4ccccc4)OC32)cc1 (stereo not drawn) [Compound 5] | 95.2
4 | 9.08 | 16.9 | COc1ccc(N2C(c3ccccc3)CC3C(c4ccc(Br)cc4)N(c4ccccc4)OC32)cc1 (stereo not drawn) [Compound 6] | ~90
5 | 19.1 | > 32 | Brc1ccccc1C1C2CC(c3ccccc3)N(c3ccccc3)C2ON1c1ccccc1 (stereo not drawn) [Compound 7] | ~90
6 | 25.4 | 28.6 | Brc1ccccc1C1c2ccccc3cccc2N2C(c4ccccc4)CC3C2ON1c1ccccc1 (stereo not drawn) [Compound 8] | 102
7 | > 32 | 19.6 | Fc1ccc(N2C(C3CCCCC3)CC3C(c4ccccc4Br)N(c4ccccc4)OC32)cc1 (stereo not drawn) [Compound 9] | 96.5
8 | 17.4 | 15.4 | Fc1ccc(N2C(c3cccs3)CC3C(c4ccccc4Br)N(c4ccccc4)OC32)cc1 (stereo not drawn) [Compound 10] | ~90
9 | > 32 | 23.5 | Cc1ccc(C2CC3C(c4ccccc4Br)N(c4ccccc4)OC3N2c2ccccc2)cc1 (stereo not drawn) [Compound 11] | 99.7
10 | 17.5 | 12.5 | O=[N+]([O-])c1ccc(C2CC3C(c4ccccc4Br)N(c4ccccc4)OC3N2c2ccccc2)cc1 (stereo not drawn) [Compound 12] | 104
11 | > 32 | 16.3 | Cc1ccc(N2C(c3ccccc3)CC3C(c4ccccc4Br)N(c4ccccc4)OC32)cc1 (stereo not drawn) [Compound 13] | 95.7
12 | 16.8 | 16.3 | Brc1ccccc1C1C2CC(/C=C/c3ccccc3)N(c3ccccc3)C2ON1c1ccccc1 (stereo not drawn) [Compound 14] | 98
13 | 9.77 | 12.2 | O=[N+]([O-])c1ccc(C2CC3C(c4ccccc4Cl)N(c4ccccc4)OC3N2c2ccccc2)cc1 (stereo not drawn) [Compound 15] | 104
14 | 13.5 | 5.93 | Cc1ccc(C2CC3C(c4ccccc4)N(c4ccccc4)OC3N2c2ccc(C)cc2)cc1 (stereo not drawn) [Compound 16] | 96.5
15 | > 32 | 27.6 | Brc1ccccc1C1C2CC(c3ccccc3Br)N(c3ccccc3)C2ON1c1ccccc1 (stereo not drawn) [Compound 17] | 114
16 | > 32 | 21 | Fc1ccc(N2C(c3cccc4ccccc34)CC3C(c4ccccc4Br)N(c4ccccc4)OC32)cc1 (stereo not drawn) [Compound 18] | 106
